In US4312883A, “Furocoumarin for the photochemotherapy of psoriasis and related skin diseases” (Consiglio Nazionale delle Ricerche, priority 1979, dated 1982):

Tested on: DNA
Experiment: Dark complex formation (intercalation) with DNA in the ground state, binding parameters
Conditions: on introduction of a cationic moiety in addition to the two methyl groups
Excerpt: Dark complex formation: It is known from F. Dall'Acqua, et al. Chem.-Biol. Interactions 21,103 (1978) that the intercalated complex formed by furocoumarins with DNA strongly affects the successive photoaddition increasing the rate of photobinding. […] These parameters have been determined according to the method of McChee and Von Hippel, J.Mol.Biol, 86, 469 (1974).
(a) Determined according to Mc Ghee and Von Hippel, J. Mol. Biol.,

**Q.** With “4'-aminomethoxymethyl-4,5'-dimethylangelicin” as the compound, how does the “increase of K (affinity towards DNA)” value read?
**A.** more than 20 times

Tested on: DNA
Experiment: Photobinding to DNA, rate constants of the photoreactions
Assay type: biochemical
Conditions: versus angelicin
Excerpt: (b) Determined according to F. Dall'Acqua, S. Marciani, F. Zambon and G.
Rodighiero, Photochem. Photobiol., 29,489(1979).
Photobinding capacity to DNA: The introduction of one or two methyl groups in the molecule of angelicin leads to a strong increase of the photobinding to DNA; see Table II. […] Photobiol., 29, 489 (1979).

**Q.** For `Cc1cc2c(cc(C)c3c(C)cc(=O)oc32)o1` [4,5,5'-trimethylangelicin], which “photobinding capacity to DNA (in words)” value is on record?
**A.** close to that of angelicin

Tested on: DNA synthesis in Ehrlich ascites tumor cells
Experiment: Inhibition of DNA synthesis (and DNA and RNA synthesis) on irradiation at 365 nm
Assay type: cell-based
Conditions: Ehrlich ascites tumor cells; versus angelicin
Excerpt: Photobiological activity: A significant test for assessing photobiological activity of alkylangelicins is the study of their capacity to inhibit DNA and RNA synthesis in Ehrlich ascites tumor cells. In Table III the capacity of inhibition is expressed as ID50, that is the irradiation does, in terms of quanta at 365 nm, necessary to inhibit in these cells the 50% of the DNA and RNA synthesis in the presence of a constant amount of alkylangelicin. […] Moreover, in general it can be observed that in this simple biological system a close correlation exists between photobiological activity and the capacity to induce photochemical lesions in DNA, that is photoreactivity.

**Q.** For `Cc1cc2c(cc(C)c3c(C)cc(=O)oc32)o1` [4,5,5'-trimethylangelicin], which “capacity to inhibit the DNA and RNA synthesis (in words)” value is on record?
**A.** lower than that of angelicin

Tested on: epidermal DNA synthesis
Experiment: Inhibition of epidermal DNA synthesis in the mouse in vivo after topical application and UV-A irradiation
Conditions: light or radiation study, 0.01% methanol solutions, UV-A 9 J/cm^2, read-out: Percent inhibition ± standard error of epidermal DNA synthesis
Experimental: DNA samples were dissolved in water and their specific radioactivity determined.
Each drug substance was studied using at least six mice.

**Q.** For `CC(=O)OCc1c(C)oc2ccc3c(C)cc(=O)oc3c12` [4'-acetoxymethyl-4,5'-dimethylangelicin, 4,5'-dimethyl-4'-acetoxymethylangelicin], which inhibition in vivo at 0.01 % is on record?
**A.** 10.6 ± 4.5%

**Q.** For `Cc1cc(=O)oc2c1c(C)cc1occc12` [4,5-dimethylangelicin], which inhibition in vivo at 0.01 % is on record?
**A.** 36 ± 1.1%

Tested on: epidermal DNA synthesis
Experiment: Inhibition of the synthesis of epidermal DNA of the mouse in vivo after oral administration and UV-A irradiation
Conditions: oral 0.25 g/Kg, UV-A 9 J/cm^2 after two hours
Excerpt: Considering that the topical skin tests carried out on mice to evaluate the effectiveness of these substances has yielded data which correlate well with the clinical data, such a test conveniently modified has been adopted to evaluate the effectiveness of the alkylangelicins after oral administration followed by UV-A irradiation.
In this connection experiments have been conducted using mice 20±2 g in weight, that were starved for three hours before oral administration of the alkylangelicins. Groups of 5 mice were fed a suspension of 0.5% methylcellulose in water containing the alkylangelicins of the invention at a dosage of 0.25 g/Kg. The animals were kept in the dark for two hours, that is for the time necessary for absorption, systemic distribution and localization of the drug at the level of the skin. The animals were then irradiated with UV-A light, 9 J/cm^2. Later the animals were sacrificed and the inhibition of the epidermal DNA synthesis was tested; the results obtained are reported in Table VI. The skin on the back, protected from light by a dark paper, was assumed as a control. As a reference 8-MOP, used under the same experimental conditions, was also tested. The significant activity of the alkylangelicins according to the present invention, higher than that of 8-MOP, in inhibiting the epidermal DNA synthesis in mice upon oral administration allows one to consider these compounds as also being effective for oral administration to humans for photochemotherapy of psoriasis and of other skin diseases that are characterized by cellular hyperproliferation.

**Q.** With `CC(=O)OCc1c(C)oc2ccc3c(C)cc(=O)oc3c12` [4'-acetoxymethyl-4,5'-dimethylangelicin, 4,5'-dimethyl-4'-acetoxymethylangelicin] as the compound, how does the “Percent inhibition ± standard error of epidermal DNA synthesis” value read?
**A.** 64.8 ± 13.9%

**Q.** With `Cc1cc(=O)oc2c1c(C)cc1occc12` [4,5-dimethylangelicin] as the compound, how does the “Percent inhibition ± standard error of epidermal DNA synthesis” value read?
**A.** 55.0 ± 6.0%

Tested on: psoriasis
Experiment: Topical photochemotherapy of psoriasis in patients
Assay type: in vivo, human
Conditions: topical 0.1% w/v + UV-A; Excellent = 90% clearance
Excerpt: Clinical data: The effectiveness of certain representative alkylangelicins according to the present invention, specifically 5-methylangelicin, 4,5'-dimethylangelicin, 4'-hydroxymethyl-4,5'-dimethylangelicin, 4'-hydroxymethyl-4,5'-dimethylangelicin and 4,5-dimethylangelicin, has been tested by measuring their capacity to resolve psoriasis in various patients. For a direct comparison the efficacy of the parent unsubstituted angelicin and that of three very effective linear furocoumarins, that is 8-methoxypsoralen (8-MOP), 5-methoxypsoralen (5-MOP), and 4,5',8-trimethylpsoralen (TMP) were also tested.
In each treatment four areas of the affected skin were used;
(a) In the first area an alcohol lotion, containing 10% glycerine, of the tested compound (0.1% w/v) was applied until a concentration of […] was reached then left to evaporate by the heat of the body. After half an hour the area was irradiated with high intensity UV-A emitting low pressure mercury fluorescent lamps with a wavelength of 320-400 nm. The irradiation doses were selected in the range of 4.5-13 J/cm^2 for each application as a function of the sensitivity of the skin of the patients; when the skin sensitivity was higher, the light doses were lower and vice versa.
(b) A second area was treated with an alcohol solution of the drug as in (a) but it was covered and maintained in the dark.
(c) A third area, where the drug was not applied, was irradiated as in (a) but in general with higher UV-A doses.
(d) A fourth area was not treated at all, neither with the drug, not with UV-A.
The treatment with the alkylangenlicins referred to above was repeated 5 time a week for two or more weeks; the total number of treatments was between 8 and 20 per subject. In some cases, as for instance with 5-methylangelicin, a good clearing of psoriasis was observed after 8 treatments.
In order to avoid induction of photosensitization processes such as redness and erythema in the reference tests made with the linear furocoumarins 8-MOP, 5-MOP, TMP, lower light doses were used than in the case of alkylangelicins, the treatments were repeated at a frequency of no more than three times a week.

**Q.** For `Cc1cc(=O)oc2c1c(C)cc1occc12` [4,5-dimethylangelicin], which “No. of patients with Excellent result” value is on record?
**A.** 0 patients

**Q.** For `COc1c2ccoc2cc2oc(=O)ccc12` [5-MOP, 5-methoxypsoralen], which “No. of patients with Excellent result” value is on record?
**A.** 0 patients

**Q.** Which “No. of patients with Excellent result” value does the source give for `Cc1cc2cc3c(C)cc(=O)oc3c(C)c2o1` [TMP, 4,5',8-trimethylpsoralen] here?
**A.** 2 patients

Same assay, conditions: topical 0.1% w/v + UV-A; Fair = 50-70%

**Q.** Which “No. of patients with Fair result” value does the source give for `Cc1cc(=O)oc2c1c(C)cc1occc12` [4,5-dimethylangelicin] here?
**A.** 0 patients

**Q.** Which “No. of patients with Fair result” value does the source give for `COc1c2ccoc2cc2oc(=O)ccc12` [5-MOP, 5-methoxypsoralen] here?
**A.** 1 patients

**Q.** Which “No. of patients with Fair result” value does the source give for `Cc1cc2cc3c(C)cc(=O)oc3c(C)c2o1` [TMP, 4,5',8-trimethylpsoralen] here?
**A.** 2 patients

Same assay, conditions: topical 0.1% w/v + UV-A; Good = 70-90%

**Q.** With `Cc1cc(=O)oc2c1c(C)cc1occc12` [4,5-dimethylangelicin] as the compound, how does the “No. of patients with Good result” value read?
**A.** 0 patients

**Q.** For `COc1c2ccoc2cc2oc(=O)ccc12` [5-MOP, 5-methoxypsoralen], which “No. of patients with Good result” value is on record?
**A.** 4 patients

**Q.** For `Cc1cc2cc3c(C)cc(=O)oc3c(C)c2o1` [TMP, 4,5',8-trimethylpsoralen], which “No. of patients with Good result” value is on record?
**A.** 2 patients

Same assay, conditions: topical 0.1% w/v + UV-A; Poor 40%

**Q.** For `Cc1cc(=O)oc2c1c(C)cc1occc12` [4,5-dimethylangelicin], which “No. of patients with Poor result” value is on record?
**A.** 2 patients

**Q.** For `COc1c2ccoc2cc2oc(=O)ccc12` [5-MOP, 5-methoxypsoralen], which “No. of patients with Poor result” value is on record?
**A.** 4 patients

**Q.** For `Cc1cc2cc3c(C)cc(=O)oc3c(C)c2o1` [TMP, 4,5',8-trimethylpsoralen], which “No. of patients with Poor result” value is on record?
**A.** 2 patients

Same assay, conditions: topical + UV-A

**Q.** For `Cc1cc(=O)oc2c1c(C)cc1occc12` [4,5-dimethylangelicin], which “efficacy in psoriasis patients (in words)” value is on record?
**A.** equal to angelicin

Tested on: melamin pigmentation
Experiment: not given
Conditions: Table I; cited from earlier work

**Q.** For `COc1c2ccoc2cc2oc(=O)ccc12` [5-MOP, 5-methoxypsoralen], which “Stimulation of melamin pigmentation” value is on record?
**A.** strong, well known

**Q.** Which “Stimulation of melamin pigmentation” value does the source give for `Cc1cc2cc3c(C)cc(=O)oc3c(C)c2o1` [TMP, 4,5',8-trimethylpsoralen] here?
**A.** strong, well known

Tested on: not given
Experiment: not given
Conditions: oral; cited from earlier work

**Q.** With `COc1c2ccoc2cc2oc(=O)ccc12` [5-MOP, 5-methoxypsoralen] as the compound, how does the “Carcinogenicity (oral)” value read?
**A.** weak

**Q.** For `Cc1cc2cc3c(C)cc(=O)oc3c(C)c2o1` [TMP, 4,5',8-trimethylpsoralen], which “Carcinogenicity (oral)” value is on record?
**A.** weak

Same assay, conditions: topical; cited from earlier work

**Q.** For `COc1c2ccoc2cc2oc(=O)ccc12` [5-MOP, 5-methoxypsoralen], which “Carcinogenicity (topical)” value is on record?
**A.** strong

**Q.** With `Cc1cc2cc3c(C)cc(=O)oc3c(C)c2o1` [TMP, 4,5',8-trimethylpsoralen] as the compound, how does the “Carcinogenicity (topical)” value read?
**A.** strong

Tested on: DNA
Experiment: not given
Conditions: Table I; cited from earlier work

**Q.** Which results are given for `COc1c2ccoc2cc2oc(=O)ccc12` [5-MOP, 5-methoxypsoralen]?
**A.** DNA intercalation property: strong; Interstrand cross-linking induction in DNA: strong, well known; Monoadduct forming property: known, strong

**Q.** Which DNA intercalation property does the source give for `Cc1cc2cc3c(C)cc(=O)oc3c(C)c2o1` [TMP, 4,5',8-trimethylpsoralen] here?
**A.** strong

**Q.** And the “Interstrand cross-linking induction in DNA” value?
**A.** strong, well known

**Q.** What about the Monoadduct forming property of the same compound?
**A.** known, strong

Same assay, conditions: known furocoumarins; cited from earlier work

**Q.** For `COc1c2ccoc2cc2oc(=O)ccc12` [5-MOP, 5-methoxypsoralen], which “Photobinding capacity to DNA” value is on record?
**A.** known, strong

**Q.** With `Cc1cc2cc3c(C)cc(=O)oc3c(C)c2o1` [TMP, 4,5',8-trimethylpsoralen] as the compound, how does the “Photobinding capacity to DNA” value read?
**A.** known, strong

Tested on: DNA synthesis
Experiment: not given
Conditions: Table I; cited from earlier work

**Q.** With `COc1c2ccoc2cc2oc(=O)ccc12` [5-MOP, 5-methoxypsoralen] as the compound, how does the “DNA synthesis inhibiting property” value read?
**A.** known, strong

**Q.** With `Cc1cc2cc3c(C)cc(=O)oc3c(C)c2o1` [TMP, 4,5',8-trimethylpsoralen] as the compound, how does the “DNA synthesis inhibiting property” value read?
**A.** known, strong

Tested on: not given
Experiment: not given
Conditions: known furocoumarins, Table I; cited from earlier work

**Q.** With `COc1c2ccoc2cc2oc(=O)ccc12` [5-MOP, 5-methoxypsoralen] as the compound, how does the Photosensitizing activity read?
**A.** known, strong

**Q.** Which Photosensitizing activity does the source give for `Cc1cc2cc3c(C)cc(=O)oc3c(C)c2o1` [TMP, 4,5',8-trimethylpsoralen] here?
**A.** known, strong

Tested on: not given
Experiment: not given
Conditions: Table I; cited from earlier work

**Q.** Which Mutagenicity does the source give for `COc1c2ccoc2cc2oc(=O)ccc12` [5-MOP, 5-methoxypsoralen] here?
**A.** known, strong

**Q.** With `Cc1cc2cc3c(C)cc(=O)oc3c(C)c2o1` [TMP, 4,5',8-trimethylpsoralen] as the compound, how does the Mutagenicity read?
**A.** known, strong
